# Literature values, collected in PMC4667793 (Journal of medicinal chemistry, 2015).
# Where a name gives a salt, the structure may show the parent alone.
# Biological target: MtBPL (Mycobacterium tuberculosis, UniProt I6YFP0)
# Settings: binding MtBPL; cited from earlier work
# Sequence of MtBPL (I6YFP0 whole entry, looked up): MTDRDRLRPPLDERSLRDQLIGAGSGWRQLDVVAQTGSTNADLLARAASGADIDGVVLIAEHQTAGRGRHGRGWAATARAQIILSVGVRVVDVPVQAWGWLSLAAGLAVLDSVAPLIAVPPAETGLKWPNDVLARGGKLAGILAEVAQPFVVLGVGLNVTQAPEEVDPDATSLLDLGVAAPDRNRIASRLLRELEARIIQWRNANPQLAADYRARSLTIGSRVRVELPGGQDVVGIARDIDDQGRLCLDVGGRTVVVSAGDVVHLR
smiles,measurement,value
"Nc1ncnc2c1ncn2[C@@H]1O[C@H](CNS(=O)(=O)NC(=O)CCCC[C@@H]2SC[C@@H]3NC(=O)N[C@@H]32)[C@@H](O)[C@H]1O [Compound 14, 5′-[N-(D-biotinoyl)sulfamoyl]amino-5′-deoxyadenosine triethylammonium salt]",times more tightly bound than biotin,"more than 1,700 times"
